{"source": "patent US8158442B2", "about": "“Antagonists of bitter taste receptors and uses thereof” (Deutsches Institut Fuer Ernaehrungsforschung …, priority 2007, dated 2012)", "key": {"TAS2R38 [1]": {"biological_target": "T1, TAS2R38 (Homo sapiens, UniProt P59533, A49P/I296V)", "T1 construct": "expressed in transfected cells; host or cells: HEK-293T cells stably expressing the chimeric G-protein subunit G16gust44", "T1 sequence (P59533 1-333 A49P/I296V)": "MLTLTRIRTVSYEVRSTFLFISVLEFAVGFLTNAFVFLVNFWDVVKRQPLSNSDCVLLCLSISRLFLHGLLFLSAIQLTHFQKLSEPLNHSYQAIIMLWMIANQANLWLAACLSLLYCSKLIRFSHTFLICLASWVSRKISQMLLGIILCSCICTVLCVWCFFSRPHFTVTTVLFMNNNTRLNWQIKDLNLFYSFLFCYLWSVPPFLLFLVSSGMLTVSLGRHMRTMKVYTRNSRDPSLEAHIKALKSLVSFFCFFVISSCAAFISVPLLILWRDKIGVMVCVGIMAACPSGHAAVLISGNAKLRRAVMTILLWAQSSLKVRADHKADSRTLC", "test": "Calcium imaging (FLIPR) of TAS2R38 transfected cells, antagonists applied as mixture with TAS2R38 agonists", "type": "cell-based", "settings": "for inhibition of the responses of TAS2R38 agonists: mixture with 0.03 mM PROP, 0.03 mM PTC or 1 mM MET, 20 mM DMTU, 5 mM DETU or 0.1 mM MBI, FIG. 3", "from_the_text": "(§1) Human TAS2R38 cDNAs encoding the PAV form of the receptor was fused with a plasma membrane-targeting sequence of the rat somatostatin type 3 receptor at the N terminus of the recombinant polypeptide and a herpes simplex virus glycoprotein D (HSV) epitope at its C terminus (Bufe B., et al. (2002) Nat Genet 32:397-401). The constructs were transiently transfected into human embryonic kidney (HEK)-293T cells that stably express the chimeric G-protein subunit G16gust44 (Ueda T., et al. (2003) J Neurosci 23:7376-7380) using Lipofectamine 2000 (Invitrogen). They were then seeded at a density of ˜20-30% and transfected at ˜60% confluency in 96-well microtiter plate (Greiner) coated with 10 μg/ml Poly-D-lysine (Sigma-Aldrich). Calcium imaging experiments using an automated fluorometric imaging plate reader (FLIPR) (Molecular Devices) have been performed 24-32 h later essentially as described previously (Bufe B., et al. (2005) Curr. Biol. 15, 322-327). Tastants (Sigma-Aldrich) were dissolved and administered in the following solution: 130 mM NaCl, 5 mM KCl, 10 mM HEPES, 2 mM CaCl2, and 10 mM glucose, pH 7.4. Data were averaged over several independent experiments and processed with SigmaPlot (SPSS). For calculation of dose-response curves, the peak fluorescence responses after addition of compounds were corrected for and normalized to background fluorescence (ΔF/F=(F−F0)/F0), and baseline noise was subtracted.\nTo test whether dimethylthiourea, diethylthiourea and mercaptobenzimidazole are capable of inhibiting the response of other TAS2R38 agonists we next tested them as mixtures with the structurally divergent TAS2R38 agonists propylthiouracil, phenylthiourea and methimidazole.\nTo further investigate the mechanism of the inhibition of TAS2R38 we examined the effect of increasing diethylthiourea concentrations on the dose response curves of propylthiouracil and phenylthiourea (FIG. 5). […] Thus, the likeliest explanation for the observed right shift in the EC50 values caused by negative cooperativity of the inhibitor binding site on the agonist binding site of PROP and PTC."}, "mTas2r5": {"biological_target": "T2, mTas2r5 (Mus musculus, UniProt Q9JKT4)", "T2 construct": "expressed in transfected cells", "T2 sequence (Q9JKT4 1-300)": "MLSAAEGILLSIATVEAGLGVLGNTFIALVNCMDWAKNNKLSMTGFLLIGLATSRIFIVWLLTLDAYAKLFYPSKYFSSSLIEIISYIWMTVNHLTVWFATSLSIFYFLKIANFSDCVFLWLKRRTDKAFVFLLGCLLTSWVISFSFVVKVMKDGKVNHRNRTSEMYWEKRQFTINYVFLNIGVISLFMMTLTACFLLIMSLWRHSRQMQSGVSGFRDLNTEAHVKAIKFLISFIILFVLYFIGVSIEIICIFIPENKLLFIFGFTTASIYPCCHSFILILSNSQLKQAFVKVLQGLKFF", "test": "Calcium imaging of mTas2r5 transfected cells stimulated with cycloheximide, specificity test", "type": "cell-based, murine", "settings": "10 mM DMTU, 5 mM DETU or 0.1 mM MBI, FIG. 4", "from_the_text": "as §1\n(§2) In contrast to the observed effects on TAS2R38, the response of cells expressing hTAS2R16 or mTas2r5 to their cognate ligands salicin or cycloheximide was not altered by any of the three TAS2R38 antagonists in concentrations that inhibited response of TAS2R38 (FIG. 4)."}, "hTAS2R16": {"biological_target": "T3, hTAS2R16 (Homo sapiens, UniProt Q9NYV7)", "T3 construct": "expressed in transfected cells", "T3 sequence (Q9NYV7 1-291)": "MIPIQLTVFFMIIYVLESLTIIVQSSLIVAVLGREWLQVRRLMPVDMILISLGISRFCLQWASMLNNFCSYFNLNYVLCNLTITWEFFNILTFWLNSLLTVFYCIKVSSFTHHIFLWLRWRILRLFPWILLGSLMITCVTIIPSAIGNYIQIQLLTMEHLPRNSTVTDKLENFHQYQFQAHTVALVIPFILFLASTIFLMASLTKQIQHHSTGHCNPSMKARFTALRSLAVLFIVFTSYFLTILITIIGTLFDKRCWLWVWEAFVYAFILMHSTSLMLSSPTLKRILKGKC", "test": "Calcium imaging of hTAS2R16 transfected cells stimulated with salicin, specificity test", "type": "cell-based", "settings": "10 mM DMTU, 5 mM DETU or 0.1 mM MBI, FIG. 4", "from_the_text": "as §1, §2"}, "TAS2R38 [2]": {"biological_target": "T1, TAS2R38", "test": "Calcium imaging (FLIPR) of TAS2R38-PAV transfected HEK-293T G16gust44 cells, activation by compound alone", "type": "cell-based", "from_the_text": "as §1\nDuring the structure-function-analysis of TAS2R38 agonists we identified and tested various compounds that contain an N—C═S moiety, which is a hallmark of TAS2R38 agonists. […] Two other compounds, dimethylthiourea and mercaptobenzimidazole that also have an N—C═S moiety (FIG. 1) could activate the receptor only at low to concentrations (EC50 of 0.5 mM for dimethylthiourea and 1.0 μM for mercaptobenzimidazole). Application of dimethylthiourea in concentrations above 3 mM led to a dose dependant reduction of the signal amplitude (FIG. 2)."}, "[3]": {"settings": "TAS2R38-PAV transfected cells, compound alone, FIG. 2, read-out: EC50 (activation of the receptor)"}}}
{"smiles": "CNC(=S)NC", "note": "[dimethylthiourea, N,N′-dimethylthiourea]", "values": [{"measurement": "inhibition of the responses of TAS2R38 agonists", "setting": "TAS2R38 [1]", "value": "inhibited the responses of all tested agonist"}, {"measurement": "effect on response of mTas2r5 expressing cells to cycloheximide", "setting": "mTas2r5", "value": "not altered"}, {"measurement": "effect on response of hTAS2R16 expressing cells to salicin", "setting": "hTAS2R16", "value": "not altered"}, {"measurement": "concentrations at which the compound acts as agonist of hTAS2R38", "setting": "TAS2R38 [2]", "value": "below 3 mM"}, {"measurement": "EC50", "setting": "TAS2R38 [2]; [3]", "value": 500, "unit": "µM"}, {"measurement": "concentrations leading to a dose dependant reduction of the signal amplitude", "setting": "TAS2R38 [2]; TAS2R38 expressing cells, compound alone, FIG. 2", "value": "above 3 mM"}]}
{"smiles": "NC(=S)Nc1ccccc1", "note": "[phenylthiourea, phenylthiocarbamide, reference compound]", "values": [{"measurement": "EC50", "setting": "TAS2R38 [1]; EC50 (result obtained for propylthiouracil), +0.25 mM diethylthiourea", "value": "3.4 ± 2.5", "unit": "µM"}, {"measurement": "EC50", "setting": "TAS2R38 [1]; EC50 (result obtained for propylthiouracil), +0.5 mM diethylthiourea", "value": "6.3 ± 3.9", "unit": "µM"}, {"measurement": "EC50", "setting": "TAS2R38 [1]; EC50 of phenylthiourea, +0.25 mM diethylthiourea", "value": "2.8 ± 0.8", "unit": "µM"}, {"measurement": "EC50", "setting": "TAS2R38 [1]; EC50 of phenylthiourea, +0.5 mM diethylthiourea", "value": "4.8 ± 1.8", "unit": "µM"}, {"measurement": "EC50", "setting": "TAS2R38 [2]; EC50 (result obtained for propylthiouracil), alone, TAS2R38 transfected cells, FIG. 5", "value": "1.1 ± 0.8", "unit": "µM"}, {"measurement": "EC50", "setting": "TAS2R38 [2]; EC50 of phenylthiourea, alone, TAS2R38 transfected cells, FIG. 5", "value": "1.4 ± 0.9", "unit": "µM"}]}
{"smiles": "CCNC(=S)NCC", "note": "[diethylthiourea, N,N′-diethylthiourea]", "values": [{"measurement": "effect on signal amplitudes of the agonists", "setting": "TAS2R38 [1]; increasing diethylthiourea concentrations, not abolished by increasing agonist concentrations", "value": "pronounced reduction of the signal amplitudes"}, {"measurement": "inhibition of the responses of TAS2R38 agonists", "setting": "TAS2R38 [1]", "value": "inhibited the responses of all tested agonist"}, {"measurement": "effect on response of mTas2r5 expressing cells to cycloheximide", "setting": "mTas2r5", "value": "not altered"}, {"measurement": "effect on response of hTAS2R16 expressing cells to salicin", "setting": "hTAS2R16", "value": "not altered"}, {"measurement": "activation of the receptor", "setting": "TAS2R38 [2]; TAS2R38-PAV transfected cells, compound alone, FIG. 2", "value": "did not activate the receptor at any tested concentration"}]}
{"smiles": "Sc1nc2ccccc2[nH]1", "note": "[mercaptobenzimidazole, 2-mercaptobenzimidazole]", "values": [{"measurement": "inhibition of the responses of TAS2R38 agonists", "setting": "TAS2R38 [1]", "value": "inhibited the responses of all tested agonist"}, {"measurement": "effect on response of mTas2r5 expressing cells to cycloheximide", "setting": "mTas2r5", "value": "not altered"}, {"measurement": "effect on response of hTAS2R16 expressing cells to salicin", "setting": "hTAS2R16", "value": "not altered"}, {"measurement": "concentrations at which the compound acts as agonist of hTAS2R38", "setting": "TAS2R38 [2]", "value": "below 0.01 mM"}, {"measurement": "EC50", "setting": "TAS2R38 [2]; [3]", "value": 1, "unit": "µM"}, {"measurement": "concentrations that pronouncedly reduced the response of TAS2R38 receptor expressing cells", "setting": "TAS2R38 [2]; compound alone, FIG. 2", "value": "above 10 μM"}]}
